Data taken from patent US10905646B2, “Thermoplastic polyurethane film for delivery of active agents to skin surfaces” (Lubrizol Advanced Materials, Inc., priority 2014, dated 2021).
Where “and” joins values, the source holds several entries; their conditions need not be identical. Identical values can stand only once.

Tests used:
[1] = Concentration of active in wet polymer K after soaking, by HPLC; format: physicochemical; settings: replicate samples
Description: The sample is placed in approximately 5 mL of soaking solution (TABLE 17) and suspended for 30 minutes in the solution. The sample is periodically checked to ensure it remains totally immersed in the solution. At the end of soaking time, the sample is removed and reweighed (final sample diameter, about 2.1 cm). The concentration of caffeine in the wet polymer sample is measured by HPLC and is shown in TABLE 18 (HPLC: Shimadzu Scientific Prominence System; Column: […].: 250×4.6 mm; Carrier Phase: A: Water, B: Methanol (65:35 v/v); Oven Temperature: Room Temperature (approx. 22° C.); Flow Rate: 1 mL/min.; UV detection: 254 nm). […] At the conclusion of the 30 min. soaking period the sample is removed from the dimethylmethoxy chromanyl palmitate solution and re-weighed (TABLE 20). The final sample diameter is about 2.0 cm. […] At the conclusion of the 30 min. soaking period the sample is removed from the arbutin solution and re-weighed. The final sample diameter is about 2.2 cm. […] (TABLE 23) and suspended for 90 minutes in the solution. […] At the conclusion of the 90 min. soaking period the sample is removed from the acetyl hexapeptide-37 solution and re-weighed. The final sample diameter is about 2.2 cm. […] (TABLE 25) and suspended for 90 minutes in the acetyl hexapeptide-8 solution. […] At the end of the 90 minute soaking time, the square is removed and weighed again (final piece diameter: 2.2 cm). The same study is performed with a lower concentration of peptide, as follows. […] At the end of the soaking time, the square is removed from the low concentration acetyl hexapeptide-8 solution and weighed again (final piece diameter: 2.2 cm).

[2] = Percutaneous absorption study on pig skin, Franz diffusion cell; format: in vitro ADME, domestic pigs (Sus domesticus); settings: Franz cell receptor fluid (PBS), HPLC
Description: A percutaneous absorption study is performed on pig skin test samples obtained from the back of domestic pigs (Sus domesticus) weighing about 30 kg. The pig skin is dermatomed to a thickness of about 500 microns and then test discs having a diameter of 2.5 cm are sectioned from the dermatomed skin. […] The loaded films are applied to the sample discs (in contact with the stratum corneum) for 30 minutes. Different layers of the film treated skin (stratum corneum, epidermis and dermis) are separated, assayed and analyzed for the quantity of caffeine and permeation into the respective layers of the skin. The quantitative analysis for caffeine and is conducted by HPLC utilizing the instrumentation identified above.
Additionally, the same solutions utilized to load the polymer films are topically applied across the entire surface of the stratum corneum of comparative pig skin disc samples prepared as above. […]
The lower chamber contained the receptor fluid (PBS solution, Sigma-Aldrich Co. LLC). The integrity of the skin is evaluated by measuring the transepidermal water loss (TEWL). […] The collected receptor fluid is analyzed by HPLC as described above.
The quantities of caffeine that permeated into each of the three different layers of the skin samples (stratum corneum, epidermis and dermis) are collected separately as follows. […]

In the case of `OC[C@H]1O[C@@H](Oc2ccc(O)cc2)[C@H](O)[C@@H](O)[C@@H]1O` [Arbutin, (2R,3S,4S,5R,6S)-2Hydroxymethyl-6(4hydroxyphenoxy)oxane-3,4,5triol], the “% Arbutin (w/w), vs. wet polymer” value ([1]; film of polymer K soaked 30 minutes in soaking solution with 4 % arbutin, pH 5.5) was 1.42 % (w/w) and 1.61 % (w/w) (2×) and 1.45 % (w/w) and 1.78 % (w/w).
For `Cn1c(=O)c2c(ncn2C)n(C)c1=O` [caffeine], the “% caffeine (w/w), vs. wet polymer” value ([1]; film of polymer K soaked 30 min in soaking solution with 2 % caffeine, pH 4) was 2.60 % (w/w) and 2.57 % (w/w) and 2.59 % (w/w) and 2.64 % (w/w) and 2.63 % (w/w) (2×) and the “Caffeine in the collected receptor fluid” value [2] was “No caffeine was present”.
In the case of `CCCCCCCCCCCCCCCC(=O)Oc1cc2c(cc1OC)OC(C)(C)CC2` [dimethylmethoxy chromanyl palmitate], the “% Dimethylmethoxy chromanyl palmitate (w/w), vs. wet polymer” value ([1]; film of Polymer K soaked 30 minutes in liposome soaking solution with 2 % dimethylmethoxy chromanyl palmitate) was 1.074 % (w/w) and 0.964 % (w/w) and 1.009 % (w/w) and 0.994 % (w/w) and 0.888 % (w/w).
In the case of Acetyl Hexapeptide-8, the “% Acetyl Hexapeptide-8 (w/w), vs. wet polymer” value ([1]; polymer K soaked 90 minutes in a 1/5000 dilution with water of the 0.05 % soaking solution) was 0.0017 % (w/w) and 0.0019 % (w/w) and the “% Acetyl Hexapeptide-8 (w/w), vs. wet polymer” value ([1]; polymer K soaked 90 minutes in soaking solution with 0.05 % acetyl hexapeptide-8) was 0.0425 % (w/w) and 0.0420 % (w/w) and 0.0418 % (w/w) and 0.0434 % (w/w).
